Measured values as given in ChEMBL document CHEMBL4507303, “Data for DCP probe TP-004” (2021).

What was measured:
[1] = biological target: Serine/threonine-protein kinase BRSK1 (Homo sapiens) (UniProt Q8TDC3); details: Compound concentration 1000.0 nM
[2] = biological target: Glycogen synthase kinase-3 beta (Homo sapiens) (UniProt P49841); details: Compound concentration 1000.0 nM
[3] = biological target: Sodium-dependent dopamine transporter (Homo sapiens, UniProt Q01959); experiment: GPCRScan assay: inhibition of DAT; parameters: radioligand conc. used [nm] 3.6 – 16.0, parental cells stable HEK
Sodium-dependent dopamine transporter, sequence (Q01959 whole entry, canonical isoform): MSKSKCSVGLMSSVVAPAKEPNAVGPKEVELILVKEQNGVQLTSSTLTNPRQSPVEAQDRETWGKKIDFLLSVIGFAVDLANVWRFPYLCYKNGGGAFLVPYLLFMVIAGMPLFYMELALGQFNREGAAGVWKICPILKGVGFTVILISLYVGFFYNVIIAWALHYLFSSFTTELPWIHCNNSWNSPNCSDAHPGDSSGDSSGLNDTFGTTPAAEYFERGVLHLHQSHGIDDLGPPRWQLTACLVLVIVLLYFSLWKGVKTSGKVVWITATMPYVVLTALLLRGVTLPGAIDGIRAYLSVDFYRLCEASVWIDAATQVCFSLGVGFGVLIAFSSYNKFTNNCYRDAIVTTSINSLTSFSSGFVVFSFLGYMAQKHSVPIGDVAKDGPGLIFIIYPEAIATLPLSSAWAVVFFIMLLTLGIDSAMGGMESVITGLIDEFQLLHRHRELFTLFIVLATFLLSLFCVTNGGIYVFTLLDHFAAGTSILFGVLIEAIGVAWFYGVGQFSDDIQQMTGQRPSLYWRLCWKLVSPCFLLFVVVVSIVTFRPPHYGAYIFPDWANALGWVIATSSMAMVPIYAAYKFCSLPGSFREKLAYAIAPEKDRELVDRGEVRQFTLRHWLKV

[4] = test system: Phosphatidylinositol 4,5-bisphosphate 3-kinase catalytic subunit alpha isoform (Homo sapiens), P42336 [H1047L]; details: Compound concentration 1000.0 nM
[5] = biological target: Serine/threonine-protein kinase 25 (Homo sapiens) (UniProt O00506); details: Compound concentration 1000.0 nM
[6] = biological target: Serine/threonine-protein kinase WNK4 (Homo sapiens) (UniProt Q96J92); details: Compound concentration 1000.0 nM
[7] = biological target: Serine/threonine-protein kinase MRCK beta (Homo sapiens) (UniProt Q9Y5S2); details: Compound concentration 1000.0 nM
[8] = biological target: Macrophage-stimulating protein receptor (Homo sapiens) (UniProt Q04912); details: Compound concentration 1000.0 nM
[9] = biological target: Serine/threonine-protein kinase D3 (Homo sapiens) (UniProt O94806); details: Compound concentration 1000.0 nM
[10] = biological target: Phosphorylase b kinase regulatory subunit alpha, liver isoform (Homo sapiens) (UniProt P46019); details: Compound concentration 1000.0 nM
[11] = biological target: Phosphatidylinositol 4,5-bisphosphate 3-kinase catalytic subunit beta isoform (Homo sapiens) (UniProt P42338); details: Compound concentration 1000.0 nM
Phosphatidylinositol 4,5-bisphosphate 3-kinase catalytic subunit beta isoform (Homo sapiens), sequence (P42338 whole entry, looked up, canonical isoform): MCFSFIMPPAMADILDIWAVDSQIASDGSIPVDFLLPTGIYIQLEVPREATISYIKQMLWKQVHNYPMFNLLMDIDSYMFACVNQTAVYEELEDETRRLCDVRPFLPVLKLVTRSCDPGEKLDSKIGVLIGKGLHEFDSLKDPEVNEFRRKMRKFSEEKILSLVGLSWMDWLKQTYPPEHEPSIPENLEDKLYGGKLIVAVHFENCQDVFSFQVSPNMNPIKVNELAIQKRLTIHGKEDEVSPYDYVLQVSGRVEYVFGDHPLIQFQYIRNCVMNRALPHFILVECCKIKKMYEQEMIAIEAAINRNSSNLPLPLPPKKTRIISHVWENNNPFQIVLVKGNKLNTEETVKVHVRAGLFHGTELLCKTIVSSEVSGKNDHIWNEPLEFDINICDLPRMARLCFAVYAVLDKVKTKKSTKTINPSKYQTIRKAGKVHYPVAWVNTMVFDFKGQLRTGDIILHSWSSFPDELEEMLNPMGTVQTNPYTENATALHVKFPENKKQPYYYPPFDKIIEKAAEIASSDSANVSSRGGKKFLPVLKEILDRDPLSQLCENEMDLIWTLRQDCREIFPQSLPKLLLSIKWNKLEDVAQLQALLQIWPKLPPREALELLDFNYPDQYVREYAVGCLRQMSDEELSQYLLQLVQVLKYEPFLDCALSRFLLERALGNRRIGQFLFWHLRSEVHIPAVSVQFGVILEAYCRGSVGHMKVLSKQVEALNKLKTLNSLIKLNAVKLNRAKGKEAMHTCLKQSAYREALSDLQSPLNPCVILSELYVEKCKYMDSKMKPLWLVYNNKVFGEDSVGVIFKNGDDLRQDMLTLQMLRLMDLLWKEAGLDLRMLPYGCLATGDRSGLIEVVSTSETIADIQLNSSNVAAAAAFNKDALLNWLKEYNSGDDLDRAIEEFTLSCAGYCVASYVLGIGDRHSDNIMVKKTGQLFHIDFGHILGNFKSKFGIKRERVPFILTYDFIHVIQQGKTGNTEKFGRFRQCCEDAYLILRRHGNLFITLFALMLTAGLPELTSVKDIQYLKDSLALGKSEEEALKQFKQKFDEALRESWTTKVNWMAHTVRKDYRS

[12] = test system: Mast/stem cell growth factor receptor Kit (Homo sapiens), P10721 [D816V]; details: Compound concentration 1000.0 nM
[13] = biological target: Aurora kinase B (Homo sapiens) (UniProt Q96GD4); details: Compound concentration 1000.0 nM
[14] = test system: Receptor-type tyrosine-protein kinase FLT3 (Homo sapiens), P36888 [UNDEFINED MUTATION]; details: Compound concentration 1000.0 nM
[15] = biological target: Serine/threonine-protein kinase haspin (Homo sapiens) (UniProt Q8TF76); details: Compound concentration 1000.0 nM
Serine/threonine-protein kinase haspin (Homo sapiens), sequence (Q8TF76 whole entry): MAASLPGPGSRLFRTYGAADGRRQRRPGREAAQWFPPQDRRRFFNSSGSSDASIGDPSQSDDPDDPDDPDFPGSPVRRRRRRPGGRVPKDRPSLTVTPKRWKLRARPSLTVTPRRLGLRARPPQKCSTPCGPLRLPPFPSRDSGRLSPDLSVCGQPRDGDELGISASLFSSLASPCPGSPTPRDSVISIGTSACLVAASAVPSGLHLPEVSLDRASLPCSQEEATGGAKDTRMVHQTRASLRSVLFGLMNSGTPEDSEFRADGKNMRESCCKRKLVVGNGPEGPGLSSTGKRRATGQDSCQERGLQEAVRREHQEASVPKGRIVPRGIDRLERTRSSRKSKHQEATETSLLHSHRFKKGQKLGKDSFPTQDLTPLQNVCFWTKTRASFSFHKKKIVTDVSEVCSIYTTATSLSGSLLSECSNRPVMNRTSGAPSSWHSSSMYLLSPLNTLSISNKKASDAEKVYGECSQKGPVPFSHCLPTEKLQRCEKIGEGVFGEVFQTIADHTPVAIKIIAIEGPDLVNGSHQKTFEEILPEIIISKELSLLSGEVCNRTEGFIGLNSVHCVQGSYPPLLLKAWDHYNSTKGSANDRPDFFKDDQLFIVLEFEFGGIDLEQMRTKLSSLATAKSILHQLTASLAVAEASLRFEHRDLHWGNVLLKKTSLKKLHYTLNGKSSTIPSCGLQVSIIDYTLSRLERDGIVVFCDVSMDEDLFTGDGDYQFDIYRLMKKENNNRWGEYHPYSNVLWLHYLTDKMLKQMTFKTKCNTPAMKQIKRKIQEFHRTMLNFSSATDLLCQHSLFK

[16] = biological target: SRSF protein kinase 1 (Homo sapiens) (UniProt Q96SB4); details: Compound concentration 1000.0 nM
[17] = biological target: Mitogen-activated protein kinase kinase kinase 10 (Homo sapiens) (UniProt Q02779); details: Compound concentration 1000.0 nM
[18] = biological target: Serine/threonine-protein kinase MRCK gamma (Homo sapiens) (UniProt Q6DT37); details: Compound concentration 1000.0 nM
[19] = test system: Epidermal growth factor receptor (Homo sapiens), P00533 [UNDEFINED MUTATION]; details: Compound concentration 1000.0 nM
Rattus norvegicus = organism: Rattus norvegicus; details: Compound concentration 10.0 uM
[20] = biological target: Testis-specific serine/threonine-protein kinase 3 (Homo sapiens) (UniProt Q96PN8); details: Compound concentration 1000.0 nM
Testis-specific serine/threonine-protein kinase 3 (Homo sapiens), sequence (Q96PN8 whole entry): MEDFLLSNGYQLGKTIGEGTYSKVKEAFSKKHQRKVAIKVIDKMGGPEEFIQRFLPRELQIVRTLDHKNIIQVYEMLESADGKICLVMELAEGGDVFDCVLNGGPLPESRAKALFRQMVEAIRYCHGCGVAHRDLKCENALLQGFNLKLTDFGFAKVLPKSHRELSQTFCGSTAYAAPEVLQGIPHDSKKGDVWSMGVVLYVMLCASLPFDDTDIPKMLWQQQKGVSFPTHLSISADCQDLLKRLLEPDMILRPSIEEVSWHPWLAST

[21] = test system: Tyrosine-protein kinase ABL1 (Homo sapiens), P00519 [H396P]; details: Compound concentration 1000.0 nM
[22] = test system: ALK tyrosine kinase receptor (Homo sapiens), Q9UM73 [C1156Y]; details: Compound concentration 1000.0 nM
[23] = biological target: Tyrosine-protein kinase Fes/Fps (Homo sapiens) (UniProt P07332); details: Compound concentration 1000.0 nM
[24] = biological target: 3-phosphoinositide-dependent protein kinase 1 (Homo sapiens) (UniProt O15530); details: Compound concentration 1000.0 nM
[25] = biological target: Serine/threonine-protein kinase STK11 (Homo sapiens) (UniProt Q15831); details: Compound concentration 1000.0 nM
[26] = biological target: Casein kinase I isoform epsilon (Homo sapiens) (UniProt P49674); details: Compound concentration 1000.0 nM
[27] = biological target: cAMP-dependent protein kinase catalytic subunit alpha (Homo sapiens) (UniProt P17612); details: Compound concentration 1000.0 nM
[28] = biological target: Calcium/calmodulin-dependent protein kinase kinase 2 (Homo sapiens) (UniProt Q96RR4); details: Compound concentration 1000.0 nM
[29] = test system: Epidermal growth factor receptor (Homo sapiens), P00533 [G719S]; details: Compound concentration 1000.0 nM
[30] = biological target: 5-hydroxytryptamine receptor 1D (Homo sapiens) (UniProt P28221); details: Compound concentration 10.0 uM
[31] = biological target: Membrane-associated tyrosine- and threonine-specific cdc2-inhibitory kinase (Homo sapiens) (UniProt Q99640); details: Compound concentration 1000.0 nM
Membrane-associated tyrosine- and threonine-specific cdc2-inhibitory kinase (Homo sapiens), sequence (Q99640 whole entry): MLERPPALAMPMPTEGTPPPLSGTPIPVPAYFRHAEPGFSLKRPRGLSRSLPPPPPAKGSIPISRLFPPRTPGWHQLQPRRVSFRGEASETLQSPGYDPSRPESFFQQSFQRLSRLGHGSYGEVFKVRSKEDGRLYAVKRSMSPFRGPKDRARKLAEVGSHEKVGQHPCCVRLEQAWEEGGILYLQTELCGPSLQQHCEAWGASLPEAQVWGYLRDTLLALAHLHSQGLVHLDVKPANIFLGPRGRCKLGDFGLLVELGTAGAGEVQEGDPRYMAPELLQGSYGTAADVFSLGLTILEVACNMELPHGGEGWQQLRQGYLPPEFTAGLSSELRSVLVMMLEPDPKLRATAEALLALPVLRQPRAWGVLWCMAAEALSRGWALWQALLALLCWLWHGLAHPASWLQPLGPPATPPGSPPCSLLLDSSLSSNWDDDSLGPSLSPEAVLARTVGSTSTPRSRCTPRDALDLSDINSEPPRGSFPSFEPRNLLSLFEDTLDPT

[32] = biological target: Myosin light chain kinase family member 4 (Homo sapiens) (UniProt Q86YV6); details: Compound concentration 1000.0 nM
[33] = biological target: Serine/threonine-protein kinase tousled-like 2 (Homo sapiens) (UniProt Q86UE8); details: Compound concentration 1000.0 nM
[34] = biological target: Cyclin-dependent kinase 5 (Homo sapiens) (UniProt Q00535); details: Compound concentration 1000.0 nM
[35] = biological target: Cyclin-dependent kinase 15 (Homo sapiens) (UniProt Q96Q40); details: Compound concentration 1000.0 nM
[36] = biological target: Tyrosine-protein kinase Fgr (Homo sapiens) (UniProt P09769); details: Compound concentration 1000.0 nM
[37] = biological target: Casein kinase II subunit alpha (Homo sapiens) (UniProt P68400); details: Compound concentration 1000.0 nM
[38] = biological target: Proto-oncogene tyrosine-protein kinase receptor Ret (Homo sapiens) (UniProt P07949); details: Compound concentration 1000.0 nM
[39] = biological target: Histamine H2 receptor (Homo sapiens) (UniProt P25021); details: Compound concentration 10.0 uM
[40] = biological target: Mitogen-activated protein kinase kinase kinase 15 (Homo sapiens) (UniProt Q6ZN16); details: Compound concentration 1000.0 nM
Mitogen-activated protein kinase kinase kinase 15 (Homo sapiens), sequence (Q6ZN16 whole entry): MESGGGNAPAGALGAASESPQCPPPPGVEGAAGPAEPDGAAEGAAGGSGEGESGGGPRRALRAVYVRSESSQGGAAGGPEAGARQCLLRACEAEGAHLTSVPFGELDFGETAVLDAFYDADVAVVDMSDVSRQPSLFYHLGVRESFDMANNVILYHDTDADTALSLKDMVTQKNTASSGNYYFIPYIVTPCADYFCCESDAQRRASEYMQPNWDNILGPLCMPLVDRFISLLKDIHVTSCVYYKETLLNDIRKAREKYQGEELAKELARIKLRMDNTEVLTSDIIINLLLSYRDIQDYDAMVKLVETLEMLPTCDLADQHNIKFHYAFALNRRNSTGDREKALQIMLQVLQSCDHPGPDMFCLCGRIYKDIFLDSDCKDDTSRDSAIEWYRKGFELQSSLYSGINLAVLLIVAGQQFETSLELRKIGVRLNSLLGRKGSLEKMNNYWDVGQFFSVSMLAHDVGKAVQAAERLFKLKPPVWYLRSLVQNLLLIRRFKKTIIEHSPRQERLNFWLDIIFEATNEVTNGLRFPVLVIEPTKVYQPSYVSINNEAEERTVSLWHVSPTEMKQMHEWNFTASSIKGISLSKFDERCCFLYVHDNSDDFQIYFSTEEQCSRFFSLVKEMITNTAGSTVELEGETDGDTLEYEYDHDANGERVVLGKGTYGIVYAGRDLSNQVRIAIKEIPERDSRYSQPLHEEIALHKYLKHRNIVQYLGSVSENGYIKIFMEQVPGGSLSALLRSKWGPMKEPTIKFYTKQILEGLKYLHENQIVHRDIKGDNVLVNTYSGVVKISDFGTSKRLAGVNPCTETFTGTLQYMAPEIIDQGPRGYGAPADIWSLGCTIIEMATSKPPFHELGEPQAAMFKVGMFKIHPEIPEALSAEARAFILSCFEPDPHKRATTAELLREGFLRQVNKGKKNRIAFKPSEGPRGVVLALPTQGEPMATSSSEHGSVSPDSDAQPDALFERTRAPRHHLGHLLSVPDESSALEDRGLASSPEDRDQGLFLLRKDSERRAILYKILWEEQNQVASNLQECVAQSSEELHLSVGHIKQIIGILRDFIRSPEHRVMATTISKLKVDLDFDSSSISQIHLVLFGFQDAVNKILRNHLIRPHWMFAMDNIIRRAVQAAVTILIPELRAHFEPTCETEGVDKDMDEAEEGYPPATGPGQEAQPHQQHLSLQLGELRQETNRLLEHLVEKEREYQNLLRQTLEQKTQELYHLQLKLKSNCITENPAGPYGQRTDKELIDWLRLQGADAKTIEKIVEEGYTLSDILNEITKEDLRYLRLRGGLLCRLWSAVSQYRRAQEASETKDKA

[41] = biological target: Insulin-like growth factor 1 receptor (Homo sapiens) (UniProt P08069); details: Compound concentration 1000.0 nM
[42] = biological target: Death-associated protein kinase 3 (Homo sapiens) (UniProt O43293); details: Compound concentration 1000.0 nM
Death-associated protein kinase 3 (Homo sapiens), sequence (O43293 whole entry, looked up): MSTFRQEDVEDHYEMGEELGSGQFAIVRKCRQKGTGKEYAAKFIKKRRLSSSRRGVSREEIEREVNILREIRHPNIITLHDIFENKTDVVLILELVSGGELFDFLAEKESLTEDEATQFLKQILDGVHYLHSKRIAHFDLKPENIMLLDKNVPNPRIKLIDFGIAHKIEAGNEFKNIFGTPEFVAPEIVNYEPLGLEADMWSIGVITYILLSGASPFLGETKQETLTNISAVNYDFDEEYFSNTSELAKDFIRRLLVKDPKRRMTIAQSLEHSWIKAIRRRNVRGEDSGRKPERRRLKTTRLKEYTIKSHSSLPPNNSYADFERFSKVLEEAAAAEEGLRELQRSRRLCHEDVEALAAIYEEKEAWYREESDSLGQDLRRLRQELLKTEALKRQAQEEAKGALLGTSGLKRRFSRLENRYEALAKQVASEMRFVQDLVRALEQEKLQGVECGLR

[43] = biological target: Serine/threonine-protein kinase PLK1 (Homo sapiens) (UniProt P53350); details: Compound concentration 1000.0 nM
[44] = test system: Proto-oncogene tyrosine-protein kinase receptor Ret (Homo sapiens), P07949 [M918T]; details: Compound concentration 1000.0 nM

Q: `Cc1nc(N2CC[C@@H](O)C2)ncc1-c1cc(C(F)(F)F)cc2[nH]ncc12` [TP-004] was tested. Which residual activity [1] did it give?
A: Its residual activity is 100%.

Q: And the residual activity [2]?
A: The residual activity was 65%.

Q: And the Ki ([3]; read-out: Ki)?
A: Its Ki is 1.68 µM.

Q: What about the Ki ([3]; read-out: pKi (converted)) of the same compound?
A: Its Ki is 1.58 µM.

Q: What about the residual activity [4] of the same compound?
A: Its residual activity is 93%.

Q: And the residual activity [5]?
A: Its residual activity is 100%.

Q: What about the residual activity [6] of the same compound?
A: The residual activity was 95%.

Q: What about the residual activity [7] of the same compound?
A: The residual activity was 100%.

Q: And the residual activity [8]?
A: Its residual activity is 100%.

Q: And the residual activity [9]?
A: Its residual activity is 100%.

Q: And the residual activity [10]?
A: Its residual activity is 100%.

Q: And the residual activity [11]?
A: Its residual activity is 60%.

Q: And the residual activity [12]?
A: Its residual activity is 100%.

Q: What about the residual activity [13] of the same compound?
A: Its residual activity is 100%.

Q: What about the residual activity [14] of the same compound?
A: Its residual activity is 69%.

Q: What about the residual activity [15] of the same compound?
A: Its residual activity is 66%.

Q: And the residual activity [16]?
A: The residual activity was 100%.

Q: And the residual activity [17]?
A: The residual activity was 100%.

Q: What about the residual activity [18] of the same compound?
A: The residual activity was 100%.

Q: What about the residual activity [19] of the same compound?
A: Its residual activity is 64%.

Q: What about the inhibition (Rattus norvegicus) of the same compound?
A: Its inhibition is 1.57%.

Q: What about the residual activity [20] of the same compound?
A: The residual activity was 100%.

Q: And the residual activity [21]?
A: Its residual activity is 77%.

Q: And the residual activity [22]?
A: The residual activity was 100%.

Q: And the residual activity [23]?
A: Its residual activity is 100%.

Q: What about the residual activity [24] of the same compound?
A: The residual activity was 100%.

Q: What about the residual activity [25] of the same compound?
A: The residual activity was 100%.

Q: What about the residual activity [26] of the same compound?
A: The residual activity was 79%.

Q: And the residual activity [27]?
A: Its residual activity is 83%.

Q: And the residual activity [28]?
A: Its residual activity is 100%.

Q: What about the residual activity [29] of the same compound?
A: The residual activity was 100%.

Q: What about the inhibition [30] of the same compound?
A: The inhibition was -8.55%.

Q: And the residual activity [31]?
A: The residual activity was 100%.

Q: What about the residual activity [32] of the same compound?
A: Its residual activity is 100%.

Q: And the residual activity [33]?
A: Its residual activity is 100%.

Q: And the residual activity [34]?
A: Its residual activity is 99%.

Q: What about the residual activity [35] of the same compound?
A: Its residual activity is 81%.

Q: And the residual activity [36]?
A: Its residual activity is 100%.

Q: And the residual activity [37]?
A: The residual activity was 85%.

Q: And the residual activity [38]?
A: Its residual activity is 84%.

Q: What about the inhibition [39] of the same compound?
A: The inhibition was -8.45%.

Q: And the residual activity [40]?
A: Its residual activity is 100%.

Q: And the residual activity [41]?
A: The residual activity was 100%.

Q: And the residual activity [42]?
A: Its residual activity is 100%.

Q: What about the residual activity [43] of the same compound?
A: Its residual activity is 64%.

Q: And the residual activity [44]?
A: The residual activity was 100%.
